Data: patent publication US9951058B2, “Compound, pharmaceutically acceptable salt or optical isomer thereof, method for preparing the same, and pharmaceutical composition for prevention or treatment of viral diseases containing same as active ingredient” (Korea Research Institute of Chemical Technology, priority 2012, dated 2018)
In brackets after ≈: the same amount, converted by molar mass.

Key:
HRV 14 = assay: Cytopathic effect (CPE) inhibition assay; format: cell-based, human rhinovirus; conditions: Human rhinovirus sp., HeLa, 72 h, host cell HeLa, 3 days, MEM/2% FBS, MTT assay; read-out: EC50 HRV 14
HRV 21 = assay: Cytopathic effect (CPE) inhibition assay; format: cell-based, human rhinovirus; conditions: Human rhinovirus sp., 72 h; host cell HeLa, 3 days, MEM/2% FBS, MTT assay; read-out: EC50 HRV 21
HRV 71 = assay: Cytopathic effect (CPE) inhibition assay; format: cell-based, human rhinovirus; conditions: Human rhinovirus sp., 72 h; host cell HeLa, 3 days, MEM/2% FBS, MTT assay; read-out: EC50 HRV 71
[1] = tested on: coxsackievirus B1 (Cox B1); assay: Multicycle cytopathic effect (CPE) reduction assay; format: cell-based; conditions: Enterovirus B, B1, 72 h, read-out: EC50 CoxB1
[2] = tested on: coxsackievirus B3 (Cox B3); assay: Multicycle cytopathic effect (CPE) reduction assay; format: cell-based; conditions: Enterovirus B, B3, 72 h, read-out: EC50 CoxB3
poliovirus 3 (PV3) = assay: microbe, parasite or virus in culture; format: cell-based; conditions: Enterovirus C, 72 h, read-out: EC50 PV3
in vitro = conditions: human
[3] = Cytotoxicity (CC50) in multicycle CPE reduction assay, MTS; conditions: human

| SMILES | EC50 (HRV 14) | EC50 (HRV 21) | EC50 (HRV 71) | EC50 [1] | EC50 [2] | EC50 (poliovirus 3 (PV3)) | CC50 (in vitro) | CC50 at 3 days [3] |
| --- | --- | --- | --- | --- | --- | --- | --- | --- |
| CC(C)c1ccc2c(c1)OC1(O)c3ccccc3C(=O)C21NC(=O)C(=O)c1ccccc1 (stereo not shown) [Example 15, N-(4b-hydroxy-7-isopropyl-10-oxo-9b, 10-dihydro-4bH-indeno[1,2-b]benzofuran-9b-yl)-2-oxo-2-phenyl acetamide] | < 1 µg/mL | > 8.72 µg/mL | > 8.72 µg/mL | < 0.01 µg/mL | < 0.01 µg/mL | < 1 µg/mL | 8.72 µg/mL (≈ 20.4 µM) | 8.8 µg/mL (≈ 20.6 µM) |
| Cc1cc(C)c(C(=O)C(=O)NC23C(=O)c4cccc([N+](=O)[O-])c4C2(O)Oc2cc(C(C)C)ccc23)c(C)c1 (stereo not shown) [Example 51] | > 10 µg/mL | > 10 µg/mL | > 10 µg/mL | < 10 µg/mL | < 10 µg/mL | > 10 µg/mL | > 10 µg/mL | > 10 µg/mL |
| CC(C)NC(=O)CCC(=O)NC12C(=O)c3ccccc3C1(O)Oc1cc(C(C)C)ccc12 (stereo not shown) [Example 45, N1-(4b-hydroxy-7-isopropyl-10-oxo-4b, 10-dihydro-9bH-indeno[1,2-b]benzofuran-9b-yl)-N4-isopropyl succinamide] |  |  |  | < 0.1 µg/mL | < 0.1 µg/mL | < 10 µg/mL | > 10 µg/mL | > 10 µg/mL |
| CC(C)c1ccc2c(c1)OC1(O)c3ccccc3C(=O)C21NC(=O)CCC(=O)N(C)C (stereo not shown) [Example 44, N1-(4b-hydroxy-7-isopropyl-10-oxo-4b, 10-dihydro-9bH-indeno[1,2-b]benzofuran-9b-yl)-N4, N4-dimethyl succinamide] |  |  |  | < 0.1 µg/mL | < 0.1 µg/mL | < 10 µg/mL |  | > 10 µg/mL |
| CCCC(=O)C(=O)NC12C(=O)c3c(N)cccc3C1(O)Oc1cc(C(C)C)ccc12 (stereo not shown) [Example 52, N-(1-amino-4b-hydroxy-7-isopropyl-10-oxo-4b, 10-dihydro-9bH-indeno[1,2-b]benzofuran-9b-yl)-2-oxo pentanamide] | < 0.01 µg/mL | > 10 µg/mL | > 10 µg/mL | < 0.01 µg/mL | < 0.01 µg/mL | < 0.1 µg/mL | > 10 µg/mL | > 10 µg/mL |
| CC(C)CC(=O)C(=O)NC12C(=O)c3c(N)cccc3C1(O)Oc1cc(C(C)C)ccc12 (stereo not shown) [Example 49, N-(1-amino-4b-hydroxy-7-isopropyl-10-oxo-4b, 10-dihydro-9bH-indeno[1,2-b]benzofuran-9b-yl)-4-methyl-2-oxo pentanamide] | < 0.1 µg/mL | > 10 µg/mL | > 10 µg/mL | < 0.01 µg/mL | < 0.01 µg/mL | < 0.1 µg/mL | > 10 µg/mL | > 10 µg/mL |
| CCC(C)C(=O)C(=O)NC12C(=O)c3c(N)cccc3C1(O)Oc1cc(C(C)C)ccc12 (stereo not shown) [Example 40, N-(1-amino-4b-hydroxy-7-isopropyl-10-oxo-4b, 10-dihydro-9bH-indeno[1,2-b]benzofuran-9b-yl)-3-methyl-2-oxo pentanamide] | < 0.1 µg/mL | > 10 µg/mL | > 10 µg/mL | < 0.01 µg/mL | < 0.01 µg/mL | < 0.1 µg/mL | > 10 µg/mL | > 10 µg/mL |
| CC(C)c1ccc2c(c1)OC1(O)c3ccccc3C(=O)C21NC(=O)C(=O)c1cccs1 (stereo not shown) [Example 2, N-(4b-hydroxy-7-isopropyl-10-oxo-9b, 10-dihydro-4bH-indeno[1,2-b]benzofuran-9b-yl)-2-oxo-2-(thiopen-2-yl)acetamide] | < 0.1 µg/mL | > 8.57 µg/mL | > 8.57 µg/mL | < 0.01 µg/mL | < 0.01 µg/mL | < 1 µg/mL | 8.57 µg/mL (≈ 19.8 µM) | 9.02 µg/mL (≈ 20.8 µM) |
| CC(C)c1ccc2c(c1)OC1(O)c3cccc(N)c3C(=O)C21NC(=O)C(=O)N(C)C (stereo not shown) [Example 31, N1-(1-amino-4b-hydroxy-7-isopropyl-10-oxo-4b, 10-dihydro-9bH-indeno[1,2-b]benzofuran-9b-yl)-N2, N2-dimethyl oxal amide] | 0.012 µg/mL (≈ 0.0293 µM) | < 10 µg/mL | 73 µg/mL (≈ 178 µM) | < 0.01 µg/mL | < 0.01 µg/mL | < 0.1 µg/mL | > 10 µg/mL | > 10 µg/mL |
| CC(=N)NC12C(=O)c3ccccc3C1(O)Oc1cc(C(C)C)ccc12 (stereo not shown) [Example 60, N-(4b-hydroxy-7-isopropyl-10-oxo-4b, 10-dihydro-9bH-indeno[1,2-b]benzofuran-9b-yl)acetimide amide] | < 10 µg/mL | > 10 µg/mL | > 10 µg/mL | < 1 µg/mL | < 10 µg/mL | > 10 µg/mL | > 10 µg/mL | > 10 µg/mL |
| CCC(C)C(=O)C(=O)NC12C(=O)c3cccc([N+](=O)[O-])c3C1(O)Oc1cc(C(C)C)ccc12 (stereo not shown) [Example 28, N-(4b-hydroxy-7-isopropyl-4-nitro-10-oxo-4b, 10-dihydro-9bH-indeno[1,2-b]benzofuran-9b-yl)-3 methyl-2-oxo pentanamide] | < 10 µg/mL | > 10 µg/mL | > 10 µg/mL | < 1 µg/mL | < 10 µg/mL | > 10 µg/mL | > 10 µg/mL | > 10 µg/mL |
| CC(C)c1ccc2c(c1)OC1(O)c3ccccc3C(=O)C21NC(=O)C(=O)c1c[nH]c2ccccc12 (stereo not shown) [Example 1, N-(4b-hydroxy-7-isopropyl-10-oxo-9b, 10-dihydro-4bH-benzo[d]indeno[1,2-b]furan-9b-yl)-2-(1H-indol-3-yl)-2-oxo acetamide] | < 1 µg/mL | > 7.91 µg/mL | > 7.91 µg/mL | 0.017 µg/mL (≈ 0.0364 µM) | 0.061 µg/mL (≈ 0.131 µM) | 1.1 µg/mL (≈ 2.36 µM) | 7.91 µg/mL (≈ 17 µM) | 8.57 µg/mL (≈ 18.4 µM) |
| CC(C)c1ccc2c(c1)OC1(O)c3ccccc3C(=O)C21NC#N (stereo not shown) [Example 46, N-(4b-hydroxy-7-isopropyl-10-oxo-4b, 10-dihydro-9bH-indeno[1,2-b]benzofuran-9b-yl)cyanamide] | > 10 µg/mL | > 10 µg/mL | > 10 µg/mL | < 10 µg/mL | < 10 µg/mL | > 10 µg/mL | > 10 µg/mL | > 10 µg/mL |
| CC(C)c1ccc2c(c1)OC1(O)c3cccc(N)c3C(=O)C21NC(=O)C(=O)c1ccccc1 (stereo not shown) [Example 11, N-(1-amino-4b-hydroxy-7-isopropyl-10-oxo-9b, 10-dihydro-4bH-indeno[1,2-b]benzofuran-9b-yl)-2-oxo-2-phenyl acetamide] | < 0.1 µg/mL | 3.13 µg/mL (≈ 7.07 µM) | > 7.82 µg/mL | < 0.01 µg/mL | < 0.01 µg/mL | < 0.1 µg/mL | 7.82 µg/mL (≈ 17.7 µM) | 8.72 µg/mL (≈ 19.7 µM) |
| CC(C)c1ccc2c(c1)OC1(O)c3ccccc3C(=O)C21NC(=O)C(=O)C(C)(C)C (stereo not shown) [Example 37, N-(4b-hydroxy-7-isopropyl-10-oxo-4b, 10-dihydro-9bH-indeno[1,2-b]benzofuran-9b-yl)-3,3-dimethyl-2-oxo butanamide] | < 0.1 µg/mL | > 10 µg/mL | > 10 µg/mL | < 0.1 µg/mL | < 0.1 µg/mL | < 10 µg/mL | > 10 µg/mL | > 10 µg/mL |
| CC(=O)C(=O)NC12C(=O)c3ccccc3C1(O)Oc1cc(C)c(C)cc12 (stereo not shown) [Example 14, N-(4b-hydroxy-7,8-dimethyl-10-oxo-9b, 10-dihydro-4bH-indeno[1,2-b]benzofuran-9b-yl)-2-oxo propanamide] | 1.82 µg/mL (≈ 5.18 µM) | > 8.87 µg/mL | > 8.87 µg/mL | 0.015 µg/mL (≈ 0.0427 µM) | 0.067 µg/mL (≈ 0.191 µM) | > 8.57 µg/mL | 8.87 µg/mL (≈ 25.2 µM) | 8.57 µg/mL (≈ 24.4 µM) |
